Test [1] concerns human HepG2 cells. Briefly: Intracellular calcium concentration with Fluo-3 AM in insulin resistance induced cells. The class given is cell-based. Conditions: PA 0, 100, 300 or 500 μM, 24 hours. As to the method:
First, male C57BL/6 mice at 8 weeks (Orient Bio, Korea) were raised in an animal facility of Lee Gil Ya Cancer and Diabetes Institute (Gachon University, Korea). Particularly, the mice were raised in a sterile chamber at the temperature of 23±1° C. with 12 hr/12 hr light/dark cycle, and free dietary environment. At this time, the mice were divided into the fasted group wherein the mice were fasted for 16 hours and the refed group wherein the mice were fasted for 16 hours and then fed for 4 hours. Each group was sub-divided into the high fat diet group (HFD) and the normal diet group (chow). The high fat diet group (HFD) mice were fed with diet containing 60% fat, while the normal diet group (chow) mice were fed with diet containing 10% fat. 8 weeks later, the mice were anesthetized and the liver was perfused by using buffer 1 (142 mM NaCl, 6.7 mM KCl, 10 mM HEPES and 2.5 mM EGTA, pH 7.4). Buffer 1 above was replaced with buffer 2 (0.5 mg/Mg […], 66.7 mM NaCl, 6.7 mM KCl, 10 mM HEPES and 4.8 mM CaCl, pH 7.6), and then the perfused liver was extracted. The extracted liver was washed and degraded by using Percoll cushion gradient. The degraded cells were suspended and cultured in Hepatozyme-SFM (Gibco-BRL USA) culture medium supplemented with 10% FBS and 1% antibiotics and antifungal agent. […] The mounted cells were analyzed using a fluorescence microscope (Zeiss Axioplan 2). […]

The subject of test [2] is Akt protein. Put plainly: Western blotting of Akt protein phosphorylation in insulin-treated HepG2 cells. The class given is cell-based, human. Conditions: PA 24 hours, 100 nM insulin 15 minutes, compared with insulin alone. The protocol: First, male C57BL/6 mice at 8 weeks were divided into the fasted group wherein the mice were fasted for 16 hours and the refed group wherein the mice were fasted for 16 hours and then fed for 4 hours. Each group was sub-divided into the high fat diet group (HFD) and the normal diet group (chow). The liver cells were extracted from the raised mice by the same manner and under the same conditions as described in Example 1. The extracted liver cells were lysed in a lysis buffer containing phosphatase (Sigma-Aldrich, USA) and protease inhibitor (Sigma-Aldrich, USA). Proteins extracted from 2 to 3 mg of the liver tissue were homogenized by using a tissue homogenizer (TissuLyser, Qiagen, USA) for 1.5 minutes at a frequency of 1/30 sec. The homogenized lysate was centrifuged at 12,000 rpm for 15 minutes and the supernatant was obtained. The amount of the extracted protein was quantified by using a protein assay kit (Bio-Rad Laboratories, USA), and at this time BSA was used as a standard sample. 3 mg of the protein was mixed with 6× loading buffer, followed by electrophoresis using 10% SDS-PAGE gel. The electrophoresed protein was transferred onto a polyvinylidene fluoride (PVDF) membrane by using a transfer buffer at 4° C. with 120 V for 1.5 hours. The PVDF membrane on which the protein was transferred was pretreated with a blocking buffer prepared by mixing 5% skim milk with TBS buffer (TBS-T, pH 7.6) supplemented with Tween 20 for 30 minutes, and the membrane was washed with TBS-T. The washed membrane was added with the antibody against Akt (Cell Signaling Technology, USA), Akt(T308) (Cell Signaling Technology, USA), Akt(S473) (Cell Signaling Technology, USA), FOXO3A (Cell Signaling Technology, USA), FOXO3A(S253) (Cell Signaling Technology, USA), GSK-3β (Cell Signaling Technology, USA) or GSK-3β(S9) (Cell Signaling Technology, USA) protein as a primary antibody, followed by reaction at 4° C. for 12 hours. At this time, the antibody against actin (Santa Cruz Biotechnology, USA) protein was used for the control group. Upon completion of the reaction, the secondary antibody corresponding to the primary antibody was added thereto, followed by reaction at room temperature for 30 minutes. The PVDF membrane was washed with TBS-T buffer three times. The washed PVDF membrane was added with ECL solution (Thermo Scientific, USA), followed by image observation.
To investigate the changes in insulin sensitivity when insulin was added to the fatty liver cell model constructed in vitro, the phosphorylations of those proteins that were involved in insulin signal transduction were examined. PA was added to the human HepG2 cells prepared in Example 3, followed by reaction for 24 hours. […]

Test [3] has as its system human HepG2 cells. Briefly: Intracellular calcium dynamics with Fura-2 AM in insulin resistance induced cells. The format is cell-based. Conditions: PA. As to the method:
First, human HepG2 cells were cultured in DMEM (Dulbecco's Modified Eagle Medium) supplemented with 10% fetal bovine serum (FBS), 25 mM glucose, 2 mM L-glutamine, 100 U/Ml of penicillin and 100 μg/Ml of streptomycin. At this time, the culture was performed in a 37° C., 5% CO2 incubator. The cultured cells were distributed in a culture plate at the density of 5.0×10^5 cells/well, followed by further culture for overnight. Palmitic acid (PA) was added to the plate at the concentration of 0, 100, 300 or 500 μM, followed by reaction for 24 hours. Then, the concentration of calcium was investigated by using Fluo-3 AM according to the same conditions and procedures as described in Example 1, and the results are shown in FIG. 2A and FIG. 2B.
Intracellular calcium dynamics was confirmed in the fatty liver cell model constructed in vitro by inducing insulin resistance. At this time, the experiment was performed by the same manner under the same conditions as described in Example 3 except that Fura-2 AM was used instead of Fluo-3 AM.
(In general: Calcium flux is commonly read through the fluorescence of an indicator in the cells.)

For test [4], the system named is Akt protein. Briefly: Western blot of Akt activity with C2-Akt fusion protein and PI3K co-treated with PTEN or SHIP2. The class given is cell-based. Conditions: cells with C2-Akt fusion protein and PI3K vectors co-treated with PTEN or SHIP2. The protocol: Particularly, the experiment was performed by the same manner under the same conditions as described in Example 2 except that the vector expressing the C2-Akt fusion protein and the vector expressing PI3K protein were co-treated with PTEN or SHIP2 and the antibody against Akt (Cell Signaling Technology, USA), Akt(T308) (Cell Signaling Technology, USA), Akt(S473) (Cell Signaling Technology, USA), PI3K (Cell Signaling Technology, USA), PTEN (Cell Signaling Technology, USA) or SHIP2 (Upstate Biotechnology, USA) protein was used as the primary antibody.
In general terms: In western blotting, separated proteins are transferred to a membrane and probed.

In the case of `CCCCCCCCCCCCCCCC(=O)O` [PA, Palmitic acid], the “concentration of calcium in the cytoplasm” value in test [1] is reported as “increased”. Besides, the Akt protein phosphorylation result in test [2] is given as “significantly inhibited”. In test [3], the intracellular calcium concentration result is given as “significantly increased”.

B1: SHIP2: co-treated with the C2-Akt and PI3K vectors (protein, UniProt O15357 1-1258, looked up)
Phosphatidylinositol …: MASACGAPGPGGALGSQAPSWYHRDLSRAAAEELLARAGRDGSFLVRDSESVAGAFALCVLYQKHVHTYRILPDGEDFLAVQTSQGVPVRRFQTLGELIGLYAQPNQGLVCALLLPVEGEREPDPPDDRDASDGEDEKPPLPPRSGSTSISAPTGPSSPLPAPETPTAPAAESAPNGLSTVSHDYLKGSYGLDLEAVRGGASHLPHLTRTLATSCRRLHSEVDKVLSGLEILSKVFDQQSSPMVTRLLQQQNLPQTGEQELESLVLKLSVLKDFLSGIQKKALKALQDMSSTAPPAPQPSTRKAKTIPVQAFEVKLDVTLGDLTKIGKSQKFTLSVDVEGGRLVLLRRQRDSQEDWTTFTHDRIRQLIKSQRVQNKLGVVFEKEKDRTQRKDFIFVSARKREAFCQLLQLMKNKHSKQDEPDMISVFIGTWNMGSVPPPKNVTSWFTSKGLGKTLDEVTVTIPHDIYVFGTQENSVGDREWLDLLRGGLKELTDLDYRPIAMQSLWNIKVAVLVKPEHENRISHVSTSSVKTGIANTLGNKGAVGVSFMFNGTSFGFVNCHLTSGNEKTARRNQNYLDILRLLSLGDRQLNAFDISLRFTHLFWFGDLNYRLDMDIQEILNYISRKEFEPLLRVDQLNLEREKHKVFLRFSEEEISFPPTYRYERGSRDTYAWHKQKPTGVRTNVPSWCDRILWKSYPETHIICNSYGCTDDIVTSDHSPVFGTFEVGVTSQFISKKGLSKTSDQAYIEFESIEAIVKTASRTKFFIEFYSTCLEEYKKSFENDAQSSDNINFLKVQWSSRQLPTLKPILADIEYLQDQHLLLTVKSMDGYESYGECVVALKSMIGSTAQQFLTFLSHRGEETGNIRGSMKVRVPTERLGTRERLYEWISIDKDEAGAKSKAPSVSRGSQEPRSGSRKPAFTEASCPLSRLFEEPEKPPPTGRPPAPPRAAPREEPLTPRLKPEGAPEPEGVAAPPPKNSFNNPAYYVLEGVPHQLLPPEPPSPARAPVPSATKNKVAITVPAPQLGHHRHPRVGEGSSSDEESGGTLPPPDFPPPPLPDSAIFLPPSLDPLPGPVVRGRGGAEARGPPPPKAHPRPPLPPGPSPASTFLGEVASGDDRSCSVLQMAKTLSEVDYAPAGPARSALLPGPLELQPPRGLPSDYGRPLSFPPPRIRESIQEDLAEEAPCLQGGRASGLGEAGMSAWLRAIGLERYEEGLVHNGWDDLEFLSDITEEDLEEAGVQDPAHKRLLLDTLQLSK
Consider B1, for which the Akt protein activity entry in test [4] was “reduced”.

The values are drawn from US11726082B2, “Screening method of drug candidates for treating disease using interaction between calcium and phosphatidylinositol phosphate” (Gachon University of Industry—Academic Cooperation …, priority 2017, dated 2023).
